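How tested: cells in 96-well plates exposed to compound for 48 hours at five concentrations. The concentration for full growth arrest is given as TGI.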
What was measured:
Test in all cases: NCI-60 cell line screen, 48 h
[1] = test system: SK-MEL-28 melanoma
[2] = test system: UACC-257 melanoma
[3] = test system: MDA-MB-231 breast
[4] = test system: HOP-92 NSCLC
[5] = test system: U251 CNS
[6] = test system: RXF 393 renal
[7] = test system: MDA-MB-435
[8] = test system: HS 578T breast
[9] = test system: MDA-N
[10] = test system: TK-10 renal

Row | Compound | TGI [1] | TGI [2] | TGI [3] | TGI [4] | TGI [5] | TGI [6] | TGI [7] | TGI [8] | TGI [9] | TGI [10]
1 | CCOC(CN(C)C(=S)Nc1cccc2ccccc12)OCC | > 10 µM | > 10 µM | > 10 µM | > 10 µM | > 10 µM | > 10 µM | > 10 µM | > 10 µM | > 10 µM | > 10 µM
2 | Cc1cc2nc(-c3cc(C(C)(C)C)c(O)c(C(C)(C)C)c3)[nH]c2cc1C | > 100 µM | > 100 µM | > 100 µM | > 100 µM | > 34.3 µM | > 100 µM | > 100 µM | > 100 µM | > 44.5 µM | > 100 µM
3 | Cc1ccc(S(=O)(=O)NC(=O)NNc2ccc(F)cc2)cc1 | > 100 µM | > 100 µM | > 100 µM | > 100 µM | > 100 µM | > 100 µM | > 100 µM | > 100 µM | > 100 µM | > 100 µM
4 | Nc1nc(Nc2ccc(Cl)cc2)sc1C(=O)c1cccs1 | > 100 µM | > 100 µM | > 100 µM | > 100 µM | 38.4 µM | 42 µM | > 100 µM | 42.2 µM | > 100 µM | 36.3 µM
5 | O=C(O)c1ccc2c(c1)CC1(C2)Cc2cc3c(cc2C1=O)CCC3 (stereo not given) | > 100 µM | > 100 µM | > 100 µM | > 100 µM | > 100 µM | > 100 µM | > 100 µM | > 100 µM | > 100 µM | > 100 µM
6 | COc1cc(OCc2ccc3nc(OC)c(OC)nc3c2)cc(OC)c1OC | > 10 µM | > 10 µM | > 10 µM | > 10 µM | > 10 µM | > 10 µM | > 10 µM | > 10 µM | > 10 µM | > 10 µM
7 | C=C(C)[C@@]1(O[Si](C)(C)C)CCCC[C@@H]1CC(Sc1ccccc1)Sc1ccccc1 | 37 µM | 29.7 µM | 32.1 µM | 26 µM | 30.7 µM | 24.6 µM | 31.6 µM | 29.7 µM | 32.7 µM | 29 µM
8 | COC(=O)C1OC(O[C@H]2CC[C@]3(C)[C@H]4CC=C5[C@@H]6CC(C)(C)CC[C@]6(C(=O)OC6OCC(O)C(O)C6OC6OC(C)C(OC7OCC(OC8OCC(O)C(O)C8O)C(O)C7O)C(O)C6O)[C@H](O)C[C@@]5(C)[C@]4(C)CC[C@H]3C2(C)C)C(O)C(O)C1O (stereo not given in full) | 4.24 µM | 13.1 µM | 9.33 µM | 4.77 µM | 18.2 µM | 25.8 µM | 3.58 µM | 13 µM | 3.44 µM | 22.5 µM
9 | OCC(O)C(O)C(O)/C=N/Nc1nc(O)c(/C=C2\C=Nc3ccccc32)[nH]1 (stereo not given) | > 100 µM | > 100 µM | > 100 µM | > 100 µM | > 100 µM | > 100 µM | > 100 µM | > 100 µM | > 100 µM | > 100 µM
10 | O=C(CCCN1CCC2(CC1)C(=NC1CCCCC1)NC(=O)N2c1ccccc1)c1ccc(F)cc1 | 34.2 µM | 36 µM | 26.1 µM | 37.8 µM | 81.1 µM | 89 µM | 38.8 µM | 88.4 µM | 34.9 µM | 63.2 µM
11 | CCOC(=O)C(C)c1nc2c(Cl)c3ncccc3cc2[nH]c1=O (stereo not given) | > 100 µM | > 100 µM | > 100 µM | > 100 µM | > 100 µM | > 100 µM | > 100 µM | 90.4 µM | > 100 µM | > 100 µM
12 | COc1ccc(N=C2C(=S)N(c3ccc(OC)cc3)/C(=N/S(=O)(=O)c3ccccc3)N2c2ccccc2)cc1 | 29.7 µM | 26.6 µM | 10.6 µM | 20.7 µM | 28.8 µM | 16 µM | 20.6 µM | > 66.1 µM | 8.81 µM | 28.3 µM
13 | CC1C(c2ccc3c(c2)OCO3)c2cc3c(cc2OC1N1CCOCC1)OCO3 (stereo not given) | > 46.4 µM | > 100 µM | > 100 µM | 78.4 µM | > 83.8 µM | 51.9 µM | 27.6 µM | 55.2 µM | 29.1 µM | > 100 µM
14 | N#CCCN(CCC#N)c1ccc(/C=C2\SC(=S)NC2=O)cc1Br | > 100 µM | > 100 µM | 79.6 µM | > 100 µM | 35.1 µM | > 100 µM | > 100 µM | 27.1 µM | > 100 µM | > 100 µM
15 | Cn1ccnc1Sc1ccc(C=Nc2ccc3nc(SCC(=O)NC4CCCCC4)sc3c2)cc1[N+](=O)[O-] | > 100 µM | > 100 µM | 99.4 µM | 32.5 µM | 33.9 µM | 23.4 µM | > 100 µM | 96.3 µM | > 100 µM | 32.2 µM
16 | OC1(c2ccc(Cl)cc2)c2ccc(CN3CCCC3)cc2C2=NCCN21 (stereo not given) | 22.7 µM | 25.1 µM | 27.3 µM | 16.1 µM | 27.2 µM | 21.2 µM | 23.5 µM | 26 µM | 22.8 µM | 17.4 µM
17 | COc1cc([C@@H]2c3cc4c(cc3[C@@H](c3c(O)cc(O)c5c3O[C@H](c3ccc(O)c(O)c3)[C@@H](O)C5)[C@H]3COC(=O)[C@H]23)OCO4)cc(OC)c1O | > 100 µM | > 100 µM | > 100 µM | > 100 µM | > 100 µM | > 100 µM | > 100 µM | > 100 µM | > 100 µM | > 100 µM
18 | COc1ccc(N=NC(=Nc2ccc(F)cc2)c2ccc(N(CCC#N)CCC#N)cc2)cc1 | > 100 µM | 70.4 µM | 52.8 µM | 72.9 µM | 84.4 µM | 90 µM | > 100 µM | 86.4 µM | > 100 µM | > 100 µM

— PubChem BioAssay (NCI)
